Consider two molecules from patent US20200046641A1, “LIPOSOMES FOR THE TREATMENT OF OCULAR DISEASES” (TDC Technology Dedicated to Care srl, priority 2018, published 2020).

The series concerns chorioallantoic membrane (CAM) of 10 days embryonated eggs. Briefly: Ocular irritation by HET CAM test. Details: species or system hen. Conditions: 0.3 ml applied on CAM; bleeding, vasoconstriction, clotting. The text has this:
The in vitro test described in the present example has been carried out in order to evaluate if the ocular topical administration of the liposomes could cause irritation to the eye. To such purpose, the in vitro HET CAM test as described in […]-Recommended Test Method Protocol has been carried out: Hen's Egg Test-Chorioallantoic Membrane (HET-CAM) Test Method. The HET CAM test has been carried out by observing the irritation effects (bleeding, vasoconstriction and clotting) induced on the chorioallantoic membrane (CAM) of 10 days embryonated eggs by applying 0.3 ml of liposomes under test and calculating the ocular irritation index (“OII”) according to the formula described in Table 6. [table] The liposomes under examination in the present test are F1 and F2 liposomes. By means of the same method, the following controls have been also tested: SDS 1% (positive control with slow irritation), 0.1 N NaOH (positive control with fast irritation) and NaCl 0.9% (negative control). The embryonated eggs for this test have been obtained by the […]. farm, Tarragona, Spain. The eggs are kept at a temperature of 12±1° C. for at least 24 hours before placing them into the incubator at controlled temperature (37.8° C.) and humidity (50-60%) during the incubation days. The data have been analyzed as mean ±standard deviation at the moment when the injury occurred (n=3/group).

`CCCCCCCCCCCCOS(=O)(=O)[O-].[Na+]` [SDS 1%, SDS]: the “Irritating effects (HET CAM)” value is “irritating effects”.
On to `[Na+].[OH-]` [0.1 N NaOH, NaOH], for which the “Irritating effects (HET CAM)” value is recorded as “irritating effects”.
